Results as given in patent publication US9615576B2, “Pesticidal compositions and processes related thereto” (Dow AgroSciences LLC, priority 2011, dated 2017).
Like-named read-outs stand apart in the source and are kept apart here.

Assays:
[1] = test system: Corn Earworm (CEW) (Helicoverpa zea); assay: Bioassays on Corn Earworm (CEW), 128-well diet tray assay; assay type: in vivo; conditions: 168 h, read-out: CEW Rating (% mortality)
Summary of the method: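 Second-instar larvae (one to five per well) placed on artificial diet treated with 50 μg/cm^2 compound in 90:10 acetone-water, dried; eight wells per compound. Held at 25° C, 14:10 light-dark, five to seven days; percent mortality averaged over wells.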

[2] = test system: Beet Armyworm (BAW) (Spodoptera exigua); assay: Bioassays on Beet Armyworm (BAW), 128-well diet tray assay; assay type: in vivo; conditions: 168 h, read-out: BAW Rating (% mortality)
Summary of the method: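 Second-instar larvae (1–5 per well) on artificial diet surface-treated with 50 μg/cm^2 compound applied in 90:10 acetone-water and dried; eight wells per compound. Held 5–7 days at 25° C., 14:10 light-dark. Percent mortality scored per well and averaged over eight wells.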

[3] = 50 μg/cm^2 test compound on artificial diet, second instar larvae, 25° C., five to seven days, average of eight wells

| SMILES | mortality at 50 µg/cm2 [1, 3] [%] | mortality at 50 µg/cm2 [2, 3] [%] | mortality at 50 µg/cm2 [1] [%] | mortality at 50 µg/cm2 [2] [%] |
| --- | --- | --- | --- | --- |
| O=C(NCc1ccc(C(F)(F)F)nc1)c1ccc(/C=C/C(c2cc(Cl)c(Cl)c(Cl)c2)C(F)(F)F)cc1Br (centres unmarked) [AC75] | 50 to 100 | 50 to 100 | – | – |
| CN(C)c1ccc(CNC(=O)c2ccc(/C=C/C(c3cc(Cl)c(Cl)c(Cl)c3)C(F)(F)F)cc2Br)cn1 (centres unmarked) [AC96] | 0 | 0 | – | – |
| CCc1cc(/C=C/C(c2cc(Cl)c(F)c(Cl)c2)C(F)(F)F)ccc1C(=O)NCc1cccnc1Cl (centres unmarked) [AC76] | 50 to 100 | 50 to 100 | – | – |
| N#Cc1cc(/C=C/C(c2cc(C(F)(F)F)cc(C(F)(F)F)c2)C(F)(F)F)ccc1-n1cncn1 (centres unmarked) [DC30] | 50 to 100 | 50 to 100 | – | – |
| O=C(CNC(=O)c1ccc(/C=C/C(c2cc(Cl)cc(Cl)c2)C(F)(F)F)cc1F)NCC(F)(F)F (centres unmarked) [AC62] | 50 to 100 | 50 to 100 | – | – |
| N#Cc1cc(/C=C/C(c2cc(Cl)c(Cl)c(Cl)c2)C(F)(F)F)ccc1-n1cnc(N(C(=O)C2CC2)C(=O)C2CC2)n1 (centres unmarked) [DC42, (E)-N-(1-(2-cyano-4-(4,4,4-trifluoro-3-(3,4,5-trichlorophenyl)but-1-en-1-yl)phenyl)-1H-1,2,4-triazol-3-yl)-N-(cyclopropanecarbonyl)cyclopropanecarboxamide] | 50 to 100 | 50 to 100 | – | – |
| FC(F)(F)c1cc(Cl)cc(C(/C=C/c2ccc(-n3cncn3)cc2)C(F)(F)F)c1 (centres unmarked) [DC19] | 50 to 100 | 50 to 100 | – | – |
| CS(=O)(=O)CCC(=O)NCc1ccc(/C=C/C(c2cc(Cl)c(Cl)c(Cl)c2)C(F)(F)F)cc1Cl (centres unmarked) [CC30, (E)-N-(2-chloro-4-(4,4,4-trifluoro-3-(3,4,5-trichlorophenyl)but-1-en-1-yl)benzyl)-3-(methylsulfonyl)propanamide] | 50 to 100 | 50 to 100 | – | – |
| Cc1cc(/C=C/C(c2cc(Cl)cc(Cl)c2)C(F)(F)F)ccc1C(=O)NCC1CCCO1 (centres unmarked) [AC118] | 0 | 50 to 100 | – | – |
| O=C(NC1CS(=O)(=O)C1)c1ccc(/C=C/C(c2cc(Cl)c(F)c(Cl)c2)C(F)(F)F)cc1F (centres unmarked) [AC84] | 50 to 100 | 50 to 100 | – | – |
| O=C(NCc1ccc(Cl)nc1)c1ccc(/C=C/C(c2cc(Cl)c(F)c(Cl)c2)C(F)(F)F)cc1F (centres unmarked) [AC65] | 50 to 100 | 50 to 100 | – | – |
| FC(F)(F)C(/C=C/c1ccc(CNc2ccccn2)c(Cl)c1)c1cc(Cl)c(Cl)c(Cl)c1 (centres unmarked) [CC43, (E)-N-(2-chloro-4-(4,4,4-trifluoro-3-(3,4,5-trichlorophenyl)but-1-en-1-yl)benzyl)pyridin-2-amine] | 0 to 50 | 50 to 100 | – | – |
| FC(F)(F)C(/C=C/c1ccc(CNC(=S)C2CC2)c(Cl)c1)c1cc(Cl)c(Cl)c(Cl)c1 (centres unmarked) [CC20] | 50 to 100 | 50 to 100 | – | – |
| O=C(NCc1ccc(/C=C/C(c2cc(Cl)c(F)c(Cl)c2)C(F)(F)F)cc1Cl)C1CC1 (centres unmarked) [CC15] | 50 to 100 | 50 to 100 | – | – |
| O=C(CC(F)(F)F)NCc1ccc(/C=C/C(c2cc(Cl)c(F)c(Cl)c2)C(F)(F)F)cc1 (centres unmarked) [CC16] | 50 to 100 | 50 to 100 | – | – |
| O=C(NCc1ccc(/C=C/C(c2cc(Cl)c(Cl)c(Cl)c2)C(F)(F)F)cc1C(F)(F)F)C1CC1 (centres unmarked) [CC22] | 50 to 100 | 50 to 100 | – | – |
| Cc1cc(/C=C/C(c2cc(Cl)cc(Cl)c2)C(F)(F)F)ccc1C(=O)NCc1ncccn1 (centres unmarked) [AC18] | 50 to 100 | 50 to 100 | – | – |

| SMILES | mortality at 50 µg/cm2 [1, 3] [%] | mortality at 50 µg/cm2 [2, 3] [%] | mortality at 50 µg/cm2 [1] [%] | mortality at 50 µg/cm2 [2] [%] |
| --- | --- | --- | --- | --- |
| Cc1cc(/C=C/C(c2cc(Cl)cc(Cl)c2)C(F)(F)F)ccc1-n1cncn1 (centres unmarked) [DC62] | 50 to 100 | 50 to 100 | – | – |
| O=C(NCc1ccc(/C=C/C(c2cc(Cl)c(Cl)c(Cl)c2)C(F)(F)F)cc1)c1ccnc(Cl)c1 (centres unmarked) [CC13] | 50 to 100 | 50 to 100 | – | – |
| O=C(NC1CCN(C2COC2)CC1)c1ccc(/C=C/C(c2cc(Cl)c(Cl)c(Cl)c2)C(F)(F)F)cc1Br (centres unmarked) [AC108, (E)-2-bromo-N-(1-(oxetan-3-yl)piperidin-4-yl)-4-(4,4,4-trifluoro-3-(3,4,5-trichlorophenyl)but-1-en-1-yl)benzamide] | 0 | 0 to 50 | – | – |
| N#Cc1cc(/C=C/C(c2cc(Cl)c(Cl)c(Cl)c2)C(F)(F)F)ccc1-n1cnc(NC(=O)C2CC2)n1 (centres unmarked) [DC43, (E)-N-(1-(2-cyano-4-(4,4,4-trifluoro-3-(3,4,5-trichlorophenyl)but-1-en-1-yl)phenyl)-1H-1,2,4-triazol-3-yl)cyclopropanecarboxamide] | 50 to 100 | 50 to 100 | – | – |
| O=C(CC(F)(F)F)NCc1ccc(/C=C/C(c2cc(Cl)c(Cl)c(Cl)c2)C(F)(F)F)c2ccccc12 (centres unmarked) [CC46, (E)-3,3,3-trifluoro-N-((4-(4,4,4-trifluoro-3-(3,4,5-trichlorophenyl)but-1-en-1-yl)naphthalen-1-yl)methyl)propanamide] | 50 to 100 | 0 | – | – |
| FC(F)(F)C(/C=C/c1ccc(-n2cncn2)cc1)c1ccccc1 (centres unmarked) [DC3] | 0 | 0 to 50 | – | – |
| CNc1cc(/C=C/C(c2cc(Cl)cc(Cl)c2)C(F)(F)F)ccc1-n1cncn1 (centres unmarked) [DC57, (E)-5-(3-(3,5-dichlorophenyl)-4,4,4-trifluorobut-1-en-1-yl)-N-methyl-2-(1H-1,2,4-triazol-1-yl)aniline] | 50 to 100 | 50 to 100 | – | – |
| FC(F)(F)C(/C=C/c1ccc(-n2cncn2)cc1)c1cc(Cl)cc(Cl)c1Cl (centres unmarked) [DC17] | 50 to 100 | 50 to 100 | – | – |
| O=C(NC1CSC1)c1ccc(/C=C/C(c2cc(Cl)c(F)c(Cl)c2)C(F)(F)F)cc1F (centres unmarked) [AC67] | 50 to 100 | 50 to 100 | – | – |
| O=C(CNC(=S)c1ccc(/C=C/C(c2cc(Cl)c(Cl)c(Cl)c2)C(F)(F)F)cc1Br)NCC(F)(F)F (centres unmarked) [AC91, (E)-2-(2-bromo-4-(4,4,4-trifluoro-3-(3,4,5-trichlorophenyl)but-1-en-1-yl)phenylthioamido)-N-(2,2,2-trifluoroethyl)acetamide] | 50 to 100 | 50 to 100 | – | – |
| OC(/C=C/c1ccc(-n2cncn2)cc1)(c1cc(Cl)cc(Cl)c1)C(F)(F)F (centres unmarked) [DC69, (E)-4-(4-(1H-1,2,4-triazol-1-yl)phenyl)-2-(3,5-dichlorophenyl)-1,1,1-trifluorobut-3-en-2-ol] | 0 | 0 | – | – |
| FC(F)(F)C(/C=C/c1ccc(-n2cncn2)c(Br)c1)c1cc(Cl)cc(Cl)c1 (centres unmarked) [DC47] | 50 to 100 | 50 to 100 | – | – |
| CCC(=O)NCc1ccc(/C=C/C(c2cc(Cl)cc(Cl)c2)C(F)(F)F)cc1 (centres unmarked) [CC4] | 0 to 50 | 50 to 100 | – | – |
| O=C(NC1CS(=O)(=O)C1)c1ccc(/C=C/C(c2cc(Cl)c(Cl)c(Cl)c2)C(F)(F)F)cc1C(F)(F)F (centres unmarked) [AC35] | 50 to 100 | 50 to 100 | – | – |
| N#Cc1cc(/C=C/C(c2cc(Cl)cc(Cl)c2)C(F)(F)F)ccc1-n1cnc([N+](=O)[O-])n1 (centres unmarked) [DC37] | 50 to 100 | 50 to 100 | – | – |
| O=C(NCc1ccc(Cl)nc1)c1ccc(/C=C/C(c2cc(Cl)cc(Cl)c2)C(F)(F)F)cc1F (centres unmarked) [AC49] | 50 to 100 | 50 to 100 | – | – |
| O=C(NCc1ccc(/C=C/C(c2cc(Cl)c(Cl)c(Cl)c2)C(F)(F)F)cc1Cl)Oc1ccccc1Cl (centres unmarked) [CC40] | – | – | 50 to 100 | 0 |
